Consider 17 compounds from patent publication US9365522B2, “Pyrazole amide derivative” (AMGEN INC., priority 2015, dated 2016).

This assay has as its target T1, ligand binding domain of human ROR gamma (Homo sapiens, UniProt P51449).
T1 construct: NM_001001523; expressed in transfected cells; host or cells: HEK293T
T1 sequence (P51449 247-497 isoform P51449-2): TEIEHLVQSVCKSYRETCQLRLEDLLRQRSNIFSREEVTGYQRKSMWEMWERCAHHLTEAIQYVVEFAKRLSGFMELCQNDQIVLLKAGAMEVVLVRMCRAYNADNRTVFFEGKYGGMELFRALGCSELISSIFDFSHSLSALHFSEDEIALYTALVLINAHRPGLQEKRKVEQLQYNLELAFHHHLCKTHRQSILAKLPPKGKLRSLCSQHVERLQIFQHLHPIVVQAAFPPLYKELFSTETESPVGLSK
Briefly: ROR gamma reporter gene assay (GAL4-RORγ LBD luciferase, Dual-Glo). Type of assay: cell-based. As to conditions: HEK293T cells transfected with pM-ROR gamma, 8 concentrations 3.5 nM to 10.5 μM, 24 h incubation; read-out: result (pIC50, inhibition of RORγ transcriptional activity) (converted). A digest of the protocol: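 HEK293T cells co-transfected with GAL4-DBD fused to human RORγ LBD (aa 247-497), 5×UAS firefly luciferase reporter and CMV-renilla, in charcoal-stripped serum.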
On the technique in general: In a reporter assay the amount or activity of a reporter protein is the signal.
As for `N[C@]1(C(=O)O)CC[C@H](n2ncc(C(=O)N(CC(=O)c3c(Cl)cncc3Cl)Cc3ccc(F)cc3)c2C(F)(F)F)CC1` [Example 117, cis-4-(4-((2-(3,5-dichloropyridin-4-yl)-2-oxoethyl)-((4-fluorophenyl)methyl)carbamoyl)-5-(trifluoromethyl)pyrazol-1-yl)-1-aminocyclohexane-1-carboxylic acid], the IC50 was 3.55e+06 pM.
To `CC(C)(CN(Cc1cc(F)cc(F)c1)C(=O)c1cnn([C@H]2CC[C@H](C(=O)O)CC2)c1C(F)(F)F)c1c(Cl)cccc1Cl` [Example 118, trans-4-(4-((2-(2,6-dichlorophenyl)-2-methylpropyl)-((3,5-difluorophenyl)methyl)carbamoyl)-5-(trifluoromethyl)pyrazol-1-yl)cyclohexane-1-carboxylic acid] belongs 1.74e+06 pM.
As for `COc1cncc(OC)c1C(=O)CN(Cc1cc(F)cc(F)c1)C(=O)c1cnn([C@H]2CC[C@H](C(=O)O)CC2)c1C(F)(F)F` [Example 119, trans-4-(4-((3,5-difluorophenyl)methyl-(2-(3,5-dimethoxypyridin-4-yl)-2-oxoethyl)carbamoyl)-5-(trifluoromethyl)pyrazol-1-yl)cyclohexane-1-carboxylic acid], the figure is 1.51e+06 pM; as for `O=C(CN(CC1CCCCN1)C(=O)c1cnn([C@H]2CC[C@H](C(=O)O)CC2)c1C(F)(F)F)c1c(Cl)cncc1Cl` (stereo partly drawn) [Example 121, trans-4-(4-((2-(3,5-dichloropyridin-4-yl)-2-oxoethyl)-(piperidin-2-ylmethyl)carbamoyl)-5-(trifluoromethyl)pyrazol-1-yl)cyclohexane-1-carboxylic acid], more than 1e+07 pM.
As for `Cc1cc(=O)[nH]c(C)c1C(=O)CN(Cc1cc(F)cc(F)c1)C(=O)c1cnn([C@H]2CC[C@H](C(=O)O)CC2)c1C(F)(F)F` [Example 122, trans-4-(4-((3,5-difluorophenyl)methyl-(2-(2,4-dimethyl-6-oxo-1H-pyridin-3-yl)-2-oxoethyl)carbamoyl)-5-(trifluoromethyl)pyrazol-1-yl)cyclohexane-1-carboxylic acid], the figure is more than 1e+07 pM; as for `O=C(CN(CC12CC3CC(CC(C3)C1)C2)C(=O)c1cnn([C@H]2CC[C@H](C(=O)O)CC2)c1C(F)(F)F)c1c(Cl)cncc1Cl` [Example 123, trans-4-(4-(1-adamantylmethyl-(2-(3,5-dichloropyridin-4-yl)-2-oxoethyl)carbamoyl)-5-(trifluoromethyl)pyrazol-1-yl)cyclohexane-1-carboxylic acid], 4900 pM; as for `CC(C)(C)[C@H]1C[C@H](CN(CC(=O)c2c(Cl)cncc2Cl)C(=O)c2cnn([C@H]3CC[C@H](C(=O)O)CC3)c2C(F)(F)F)C1` [Example 125, trans-4-(4-((3-tert-butylcyclobutyl)methyl-(2-(3,5-dichloropyridin-4-yl)-2-oxoethyl)carbamoyl)-5-(trifluoromethyl)pyrazol-1-yl)cyclohexane-1-carboxylic acid], 324000 pM.
On to `CC(C)(C)[C@H]1C[C@@H](CN(CC(=O)c2c(Cl)cncc2Cl)C(=O)c2cnn([C@H]3CC[C@H](C(=O)O)CC3)c2C(F)(F)F)C1` [Example 126, trans-4-(4-((3-tert-butylcyclobutyl)methyl-(2-(3,5-dichloropyridin-4-yl)-2-oxoethyl)carbamoyl)-5-(trifluoromethyl)pyrazol-1-yl)cyclohexane-1-carboxylic acid], for which the IC50 was 912000 pM.
As for `O=C(CN(Cc1cc(F)cc(F)c1)C(=O)c1cnn([C@H]2CC[C@H](C(=O)O)CC2)c1C(F)(F)F)c1c(Cl)cc(OC(F)(F)F)cc1Cl` [Example 127, trans-4-(4-((2-(2,6-dichloro-4-(trifluoromethoxy)phenyl)-2-oxoethyl)-((3,5-difluorophenyl)methyl)carbamoyl)-5-(trifluoromethyl)pyrazol-1-yl)cyclohexane-1-carboxylic acid], the figure is 2.04e+06 pM; as for `N#C[C@]1(C(=O)O)CC[C@@H](n2ncc(C(=O)N(CC(=O)c3c(Cl)cncc3Cl)Cc3ccc(F)cc3)c2C(F)(F)F)CC1` [Example 128, trans-4-(4-((2-(3,5-dichloropyridin-4-yl)-2-oxoethyl)-((4-fluorophenyl)methyl)carbamoyl)-5-(trifluoromethyl)pyrazol-1-yl)-1-cyanocyclohexane-1-carboxylic acid], more than 1e+07 pM; as for `N#C[C@]1(C(=O)O)CC[C@H](n2ncc(C(=O)N(CC(=O)c3c(Cl)cncc3Cl)Cc3ccc(F)cc3)c2C(F)(F)F)CC1` [Example 129, trans-4-(4-((2-(3,5-dichloropyridin-4-yl)-2-oxoethyl)-((4-fluorophenyl)methyl)carbamoyl)-5-(trifluoromethyl)pyrazol-1-yl)-1-cyanocyclohexane-1-carboxylic acid], 8.71e+06 pM.
As for `CC1(C)CCC(CN(CC(=O)c2c(Cl)cncc2Cl)C(=O)c2cnn([C@H]3CC[C@H](C(=O)O)CC3)c2C(F)(F)F)CO1` (some centres unmarked) [Example 130], the figure is 174000 pM; as for `CC(C)(C)[C@H]1C[C@@H](N(CC(=O)c2c(Cl)cncc2Cl)C(=O)c2cnn([C@H]3CC[C@H](C(=O)O)CC3)c2C(F)(F)F)C1` [Example 131, trans-4-(4-((3-tert-butylcyclobutyl)-(2-(3,5-dichloropyridin-4-yl)-2-oxoethyl)carbamoyl)-5-(trifluoromethyl)pyrazol-1-yl)cyclohexane-1-carboxylic acid], 83200 pM; as for `CC(C)(C)[C@H]1C[C@H](N(CC(=O)c2c(Cl)cncc2Cl)C(=O)c2cnn([C@H]3CC[C@H](C(=O)O)CC3)c2C(F)(F)F)C1` [Example 132, trans-4-(4-((3-tert-butylcyclobutyl)-(2-(3,5-dichloropyridin-4-yl)-2-oxoethyl)carbamoyl)-5-(trifluoromethyl)pyrazol-1-yl)cyclohexane-1-carboxylic acid], 66100 pM.
Take `Cc1ccnc(C)c1C(=O)CN(Cc1cc(F)cc(F)c1)C(=O)c1cnn([C@H]2CC[C@H](C(=O)O)CC2)c1C(F)(F)F` [Example 134, trans-4-(4-((3,5-difiuorophenyl)methyl-(2-(2,4-dimethylpyridin-3-yl)-2-oxoethyl)carbamoyl)-5-(trifluoromethyl)pyrazol-1-yl)cyclohexane-1-carboxylic acid]: the IC50 was 245000 pM.
As for `O=C(CN(Cc1cc(F)cc(F)c1)C(=O)c1cnn([C@H]2CC[C@H](C(=O)O)CC2)c1Cl)c1c(Cl)cncc1Cl` [Example 135, trans-4-(5-chloro-4-((2-(3,5-dichloropyridin-4-yl)-2-oxoethyl)-((3,5-difluorophenyl)methyl)carbamoyl)pyrazol-1-yl)cyclohexane-1-carboxylic acid], the figure is 3.09e+06 pM; as for `O=C(CN(Cc1cc(F)cc(F)c1)C(=O)c1cnn([C@H]2CC[C@H](C(=O)O)CC2)c1C(F)(F)F)c1ccc(C(F)(F)F)cc1Cl` [Example 136, trans-4-(4-((2-(2-chloro-4-(trifluoromethyl)phenyl)-2-oxoethyl)-((3,5-difluorophenyl)methyl)carbamoyl)-5-(trifluoromethyl)pyrazol-1-yl)cyclohexane-1-carboxylic acid], 83200 pM.
